In patent US20240139125A1 (INDUSTRIAL COOPERATION FOUNDATION JEONBUK NATIONAL …, priority 2020, published 2024):

Key:
[1] = test system: tumors derived from HT1080 cells; assay: Xenograft in nude mice; format: in vivo; settings: 1 mg/kg BIA, 5 days a week, 25 days
Procedure: Mice purchased 20-25 g of BALBc/Nude and conducted experiments after 1 week of preliminary breeding to adapt to the laboratory environment. This experiment was approved by the Animal Experiment Ethics Committee of Chonbuk National University (CBNU 201 5-064, CBNU 2016-56) and was carried out according to standard work instructions, and the conditions in the breeding room were kept constant temperature and relative humidity, a 12-hour contrast cycle, and water and feed were freely consumed. Experimental animals are transplanted subcutaneously with 5×10^6 cells per mouse using HT1080 cell line and MDA-MB-231 cell line, and after 7-10 days, mice forming tumor sizes of 100 mm^3 are randomly divided into control and experimental groups. […] The tumor size was measured with a caliper and calculated using the following formula: […]
In culture, exponentially growing BI-1 (TMBIM6) knockout and WT HT1080 cells were treated with trypsin and quantified through trypan blue staining differentiation, and 3-5×10^6 cells were resuspended in 0.1 ml PBS. […]
After 25-28 days, the mice were euthanized, solid tumors were incised, and tumor volumes were recorded. Tumor size was measured with a caliper. The tumor volume (mm^3) was calculated by the formula [(shortest diameter)2×longest diameter]/2. […]

[2] = test system: HT1080 cells stably overexpressing BI-1; assay: Cell proliferation of BI-1 overexpressing cells with BIA; format: cell-based; settings: 1 day after treatment
[3] = test system: HT1080, MCF7, MDA-MB-231 and SKBR3 cells; assay: Cell migration (Transwell, wound healing); format: cell-based
Procedure: Image (A) and quantification graph (B) (n=3 independent experiment).
FIG. […] The graph on the right quantifies migrated cells from BIA-treated cells normalized to control cells (n=3 independent experiments. Data were expressed in mean±SD. **p<0.01, ***p<0.001, two-tailed unpaired t-test simulation. The scale bar represents 15 μm.
It was used and checked. Cells were treated with trypsin, and serum and 2×10^4 cells were added to the upper chamber in DMEM, cells transported to the lower chamber via transwell for 12 hours were fixed and stained with crystal violet to perform migration analysis.

MDA-MB-231 = assay: Cell proliferation/viability with BIA, IC50 after 3 days; format: cell-based; settings: Homo sapiens, 72 h; MDA-MB-231 cells, treatment for 3 days
MCF7 = assay: as above; format: cell-based; settings: Homo sapiens, MCF7, 72 h; MCF cells, treatment for 3 days
SKBR3 = assay: as above; format: cell-based; settings: Homo sapiens, SK-BR-3, 72 h; SKBR3 cells, treatment for 3 days
PANC-1 cells = assay: Cell viability (crystal violet), BIA versus mTOR inhibitors; format: cell-based; settings: 10 μM
[4] = test system: AKT serine phosphorylation (S473); assay: AKT phosphorylation by Western blotting; format: cell-based
Procedure: This is AKT signaling key to cancer cell growth, and BIA and its analogues tend to inhibit it. Only representative experimental results were presented. Data were expressed as mean±SD. After one-way ANOVA, Tukey's post hoc test is conducted.
After cell recovery, cell lytic buffer (10 mM Tris-Cl (pH 7.4), 5 mM EDTA, 130 mM NaCl, 1% Triton X-100) and protease inhibitor mix protease inhibitor cocktail (protease inhibitor cocktail and phosphatase inhibitor cocktail) were added and left at 4° C. for 30 minutes. After breaking the cells with ultrasound, they were centrifuged at 13,000× g at 4° C. for 30 minutes, and then the supernatant was taken, and the concentration was quantified using a protein quantification kit (Bio-Rad Laboratories, Hercules, CA, USA). 20 ug of the obtained protein was electrophoresis with polyacrylamide gel electrophoresis (SDS-PAGE) followed by electrotransfer to PVDF membrane (Bio-Rad). The membrane was blocked at room temperature for 1 hour with a TBS-T solution (20 mM Tris (pH 7.5), 137 mM NaCl, 0.05% Triton X-100) containing 5% skim milk. Then, after switching to a solution containing the primary antibody, it was reacted at 4° C. The membrane after the reaction was washed three times with TBS-T solution, reacted with a secondary antibody, and then luminesced using an ECL kit and autoradiography. […]

HT1080 = assay: Cell proliferation/viability with BIA, IC50 after 3 days; format: cell-based; settings: Homo sapiens, HT-1080, 72 h; HT1080, treatment for 3 days
BI-1 (TMBIM6) = molecular target: T1, BI-1 (TMBIM6) (Homo sapiens, UniProt P55061); assay: G-CEPIAer ER lumen calcium indicator; format: cell-based; settings: HT1080, 10 μM BIA, compared to untreated control cells
T1 construct: endogenous in cells; host or cells: HT1080 cells transfected only with the G-CEPIAer indicator plasmid
Procedure: FIG. 74B is a result of treating HT1080 cells with BIA 10 μM and observing the fluorescence intensity of G-CEPIAer designed to measure calcium concentration inside
Since BI-1 regulates mTORC2 activation through ER Ca2+ release, the above results confirmed whether BIA inhibits Ca2+ release from BI-1.
On the other hand, when BIA is treated, calcium inside ER increases because […] in ER inhibits calcium. This was expressed G-CEPIAer, which measures the calcium concentration inside ER, and metamorphed HT1080 cells using CEPIAer plasmid to create stable cells. This transfected cell can be used to detect only free calcium from ER via BI-1 (TMBIM6) based on the calcium channel-like nature of BI-1 (TMBIM6). By confirming the increase in fluorescence, it was possible to confirm the specificity of the BIA (see FIG. 74B).

T1 sequence (P55061 whole entry): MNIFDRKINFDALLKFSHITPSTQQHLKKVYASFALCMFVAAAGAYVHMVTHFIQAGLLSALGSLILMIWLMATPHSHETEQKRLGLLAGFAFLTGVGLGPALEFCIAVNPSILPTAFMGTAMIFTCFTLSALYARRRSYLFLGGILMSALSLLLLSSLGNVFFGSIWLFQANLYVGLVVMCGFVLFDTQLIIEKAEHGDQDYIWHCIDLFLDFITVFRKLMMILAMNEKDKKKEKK

Question: What does the source list for Nc1ccccc1C(=O)/C=C/c1cccc([N+](=O)[O-])c1 [BIA, 2E-1-2-Aminophenyl-3-3-nitrophenyl-2-propen-1-one]?
Answer: tumor growth [1]: significantly impaired; sensitivity to BIA (cell proliferation) [2]: high sensitivity; cell migration ([3]; HT1080, MCF7, MDA-MB-231 and SKBR3 cells, 2.0 μM BIA): reduced; cell migration ([3]; HT1080 cells, FIGS. 64A and 64B (migration, wound healing 2 μM)): reduced; migration of cancer cells ([3]; HT1080 fibrosarcoma cells, 10 μM, Transwell 12 hours): strongly inhibited; IC50 (MDA-MB-231): 2.6 ± 0.5 µM; IC50 (MCF7): 2.6 ± 0.4 µM; IC50 (SKBR3): 2.4 ± 0.4 µM; live cells (PANC-1 cells): almost removed live cells; phosphorylation of AKT ([4]; BIA-treated cells, following loss of BI-1/mTORC2/ribosome binding): complete reduction; AKT serine phosphorylation S473 ([4]; HT1080 cells, 1 or 2 μM): inhibited; phosphorylation of AKT ([4]; MDA-MB-231 cells, 1 or 2 μM): equally inhibited; phosphorylation of AKT ([4]; SKBR3 cells, 1 or 2 μM): equally inhibited; IC50 (HT1080): 1.7 ± 0.1 µM; G-CEPIAer fluorescence intensity (ER calcium) (BI-1 (TMBIM6)): increased
